Here are results for twelve molecules from patent publication US12234211B2, “Cycloolefin substituted heteroaromatic compounds and their use” (HUTCHISON MEDIPHARMA LIMITED, priority 2017, dated 2025).

Converted amounts (≈) assume the structure as drawn. Where two headings read alike, the source gives them in different places. Where only a bound is given, the exact number is not on record here.

For data set [1], the target named is T1, IDH2-R140Q (Homo sapiens, UniProt P48735, R140Q).
T1 construct: expressed in transfected cells
T1 sequence (P48735 40-452 R140Q): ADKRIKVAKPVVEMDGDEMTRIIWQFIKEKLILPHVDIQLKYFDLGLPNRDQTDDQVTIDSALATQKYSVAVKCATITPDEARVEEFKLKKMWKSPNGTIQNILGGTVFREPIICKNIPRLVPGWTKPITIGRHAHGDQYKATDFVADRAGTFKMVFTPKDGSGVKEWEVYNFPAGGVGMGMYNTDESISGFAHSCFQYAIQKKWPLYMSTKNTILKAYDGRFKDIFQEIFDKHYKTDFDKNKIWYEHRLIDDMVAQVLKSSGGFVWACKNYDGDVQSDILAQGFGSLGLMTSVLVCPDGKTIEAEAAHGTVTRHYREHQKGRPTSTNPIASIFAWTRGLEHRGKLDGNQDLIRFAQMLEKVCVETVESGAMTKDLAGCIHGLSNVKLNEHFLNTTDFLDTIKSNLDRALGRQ
As to the kind of experiment: Fluorescent determination of IDH2-R140Q cell activity (2-HG in U87MGR140Q cells). The data set is classed as cell-based. The following applies: 72 hours incubation, read-out: IC50 (2-HG inhibition).

A short description of data set [2]: Determination of solubility in sodium phosphate buffers. The following applies: for solubility at 1 h: aqueous buffer, thermodynamic from solid. The data set is classed as physicochemical. The method, then: • Sample standard solution: About 3-5 mg test compound was accurately weighed and added into a 5 mL sample tube, 5 mL DMSO was added. Shaking and sonicating for 1 hour. • pH 2.1 sample solution: About 1 mg test compound was accurately weighed and added into a 1 mL sample tube, 1 mL pH 2.1 sodium phosphate buffer was added. Shaking. Adding test compound to the solution, if the solution is visually clear, till there is obvious insoluble in the solution. Sonicating for 1 hour. • pH 7.4 sample solution: About 1 mg test compound was accurately weighed and added into a 1 mL sample tube, 1 mL pH 7.4 sodium phosphate buffer was added. Shaking. Adding test compound to the solution, if the solution is visually clear, till there is obvious insoluble in the solution. Sonicating for 1 hour. 2. Determination • 1 mL sample standard solution was accurately pipetted into a HPLC tube. The peak area was determined by HPLC. • 0.5 mL pH 2.1 sample solution was filtered by syringe filter and was accurately pipetted into a HPLC tube, and 0.5 mL pH 2.1 sodium phosphate buffer was accurately added. Shaking. The peak area was determined by HPLC. • 0.5 mL pH 7.4 sample solution was filtered by syringe filter and was accurately pipetted into a HPLC tube, and 0.5 mL pH 7.4 sodium phosphate buffer was accurately added. Shaking. The peak area was determined by HPLC. • HPLC condition: • Instrument: Agilent 1200 • Column: Agilent SB-C18 5 u 4.6*150 mm • Mobile phase: • Phase A: Water (containing 0.1% formic acid) • Phase B: MeOH (containing 0.1% formic acid)

For data set [3], the target named is T2, IDH1-R132H (Homo sapiens, UniProt O75874, R132H).
T2 construct: expressed in transfected cells; host or cells: U87MG cells (U87MGR132H)
T2 sequence (O75874 whole entry R132H): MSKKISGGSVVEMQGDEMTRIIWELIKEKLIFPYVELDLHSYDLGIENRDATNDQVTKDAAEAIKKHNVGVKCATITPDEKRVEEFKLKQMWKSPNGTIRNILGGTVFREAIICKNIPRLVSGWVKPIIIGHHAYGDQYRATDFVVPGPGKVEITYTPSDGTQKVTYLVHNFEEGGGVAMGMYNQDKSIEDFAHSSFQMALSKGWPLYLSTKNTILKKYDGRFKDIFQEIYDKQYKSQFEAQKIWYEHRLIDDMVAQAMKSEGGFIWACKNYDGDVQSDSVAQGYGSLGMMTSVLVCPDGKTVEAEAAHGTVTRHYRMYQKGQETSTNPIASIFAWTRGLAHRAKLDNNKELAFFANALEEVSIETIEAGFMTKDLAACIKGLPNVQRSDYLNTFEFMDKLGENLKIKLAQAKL
As to the kind of experiment: Fluorescent determination of IDH1-R132H cell activity (2-HG in U87MGR132H cells). The class given is cell-based. The following applies: 2-HG inhibition in U87MGR132H cells transfected with IDH1-R132H mutant plasmid.

Data set [4] is described as follows: Metabolic stability test in liver microsomes (mouse). The following applies: percentage of remaining compound after incubation for 30 minutes vs 0 minute; 1 μM compound; 0.5 mg/mL liver microsomes; 37° C. The data set is classed as in vitro ADME. The method, then: (§1) Male CD1 mouse liver microsomes was supplied by Research Institute for Liver Diseases (Shanghai) Co., Ltd. Male SD rat liver microsomes was supplied by BioreclamationIVT in US.
(§2) Phenacetin, glucose-6-phosphate (G-6-P), glucose-6-phosphate dehydrogenase (G-6-PD), and nicotinamide adenine dinucleotide phosphate (NADP) were supplied by Sigma-Aldrich (Missouri, USA).
(§3) 10 mM stock solution of test compound: Certain amount of test compound was weighed and dissolved in certain volume of dimethylsulfoxide (DMSO) to get the stock solution of test compound at 10 mM.
(§4) Reaction termination solution: Certain amount of phenacetin as internal standard was weighed and dissolved in acetonitrile to get the reaction termination solution at 1000 ng/mL, and stored at room temperature for use.
(§5) The stock solution of test compound was diluted to the designated concentration with organic solution (usually the mixtures of acetonitrile, methanol and water with different portions depending on the compound solution) to make the final concentration to be 1 μM and the contents of organic solvents no more than 1% (For DMSO, the controlled margin was 0.1%) in the final incubation system. 100 mM NADP, 500 mM G-6-P and 100 U/mL G-6-PDH were mixed and diluted with ultrapure water to provide the NADPH regenerating system containing 1 mM NADP, 5 mM G-6-P and 1 U/mL G-6-PD, which was pre-incubated at 37° C. water-bath for 10 min and then cooled on ice until being added into the reaction system. 20 mg/mL liver microsomes was mixed with 200 mM PBS and diluted with ultrapure water to make the concentrations of liver microsomes and PBS to be 0.5 mg/mL and 50 mM in the final incubation system, respectively. After the diluted liver microsomes was mixed with the NADPH regenerating solution, certain volumes of 100 mM EDTA and 300 mM MgCl2 (concentration of EDTA and MgCl2 in the final incubation system is 1 mM and 3 mM, respectively) were added, and the incubation system was put into 37° C. water bath. The incubation was commenced by adding the stock solution of test compound and maintained for 30 min. The incubation was terminated by adding the reaction termination solution. The 0 min sample was prepared by adding the reaction termination solution to the incubation system immediately prior to putting the system into the water bath with the addition of the stock solution of test compound. The terminated incubation mixtures were vortexed and centrifuged at 4400 rpm for 10 min, and the supernatant was collected for LC-MS/MS analysis.
(§6) The concentration of test compound was determined using LC-MS/MS method. Using the peak area ratio of the compound and the internal standard as an index, the percentage of remaining compound after incubation for 30 minutes as compared with the 0 minute sample was calculated, and the metabolic stability of the compound was evaluated.
In general terms: Liver microsomes are vesicles of endoplasmic reticulum, rich in cytochrome P450 enzymes.

Data set [5] is described as follows: Metabolic stability test in liver microsomes (rat). The class given is in vitro ADME. The following applies: percentage of remaining compound after incubation for 30 minutes vs 0 minute; 1 μM compound; 0.5 mg/mL liver microsomes; 37° C. The protocol: as §1, §2, §3, §4, §5, §6
Data set [6] deals with mutant IDH1. The following applies: patients with AML or MDS having IDH1 mutations; cited from earlier work.
The mark [7] stands for this setting: pH 2.1 sodium phosphate buffer, read-out: Solubility pH 2.1.
The mark [8] stands for this setting: pH 7.4 sodium phosphate buffer, read-out: Solubility pH 7.4.

What is called IC50 is the concentration needed to halve the response being measured. The solubility is how much of the substance goes into solution per volume. For the molecule `CC(C)Nc1nc(N[C@H](C)C(F)(F)F)nc(C2=C(F)C(O)CC(C)(C)C2)n1` (mixture of isomers) [Compound 9], the IC50 in data set [1] stood at 0.571 µM. Moreover, the figures for the solubility at 1 h in data set [2] (setting [7]) and in data set [2] (setting [8]) were > 1 mg/mL and 0.085 mg/mL (≈ 217 µM), respectively.

Regarding `C[C@@H](Nc1nc(N[C@H](C)C(F)(F)F)nc(C2=C(F)C(O)C3(CC2)CC3)n1)C(F)(F)F` (mixture of isomers) [Compound 219], the IC50 in data set [3] was 3.23 µM; in data set [1], 0.707 µM. Further, the solubility at 1 h in data set [2] (setting [7]) was 0.19 mg/mL (≈ 429 µM); in data set [2] (setting [8]), 0.06 mg/mL (≈ 135 µM).

In the case of `CC(C)Nc1nc(N[C@H](C)C(F)(F)F)nc(C2=CC(O)CC2)n1` (mixture of isomers) [Compound 125], the IC50 in data set [1] was found to be 1.67 µM. Besides, the solubility at 1 h in data set [2] (setting [7]) was 0.448 mg/mL (≈ 1350 µM); in data set [2] (setting [8]), 0.019 mg/mL (≈ 57.3 µM).

On to `CC(C)(C)ONc1nc(Nc2ccnc(C(F)(F)F)c2)nc(C2=C(F)C(O)CCC2)n1` (stereo not shown) [Compound 71], for which the IC50 in data set [3] is 3.05 µM; in data set [1], 0.05 µM. The solubility at 1 h was 0.064 mg/mL (≈ 145 µM) in data set [2] (setting [7]) and 0.055 mg/mL (≈ 124 µM) in data set [2] (setting [8]).

Take `OC1CCCCC(c2nc(NC3CC(F)(F)C3)nc(NC3CC(F)(F)C3)n2)=C1F` (stereo not shown) [Compound 20]: the IC50 in data set [1] was 0.232 µM. Moreover, the solubility at 1 h turned out to be 0.57 mg/mL (≈ 1360 µM) in data set [2] (setting [7]) and 0.062 mg/mL (≈ 148 µM) in data set [2] (setting [8]).

With `C[C@@H](Nc1nc(N[C@H]2CCOC2)nc(C2=C(F)C(O)CCC2)n1)C(F)(F)F` (mixture of isomers) [Compound 3], the IC50 in data set [1] stood at 0.866 µM. Besides, the solubility at 1 h is > 1 mg/mL in data set [2] (setting [7]) and 0.716 mg/mL (≈ 1830 µM) in data set [2] (setting [8]).

With `C[C@@H](Nc1nc(N[C@H](C)C(F)(F)F)nc(C2=C(F)C(O)C(F)CC2)n1)C(F)(F)F` (single isomer, unassigned) [Compound 97], in data set [4], the “Mouse liver microsome stability” value is recorded as 89.5%. Moreover, the results for the IC50 in data set [3] and in data set [1] were 0.047 µM and 0.052 µM, respectively. Besides, the “Rat liver microsome stability” value in data set [5] was determined as 98.5%. For the same molecule, the solubility at 1 h in data set [2] (setting [7]) turned out to be 0.077 mg/mL (≈ 177 µM); in data set [2] (setting [8]) it was 0.021 mg/mL (≈ 48.2 µM).

With `Nc1nc(N)nc(C2=C(F)C(O)C(F)(F)CC2)n1` (stereo not shown) [Compound 284, 3-(4,6-Diamino-1,3,5-triazin-2-yl)-2,6,6-trifluorocyclohex-2-en-1-ol], the solubility at 1 h was found to be 0.789 mg/mL (≈ 3020 µM) in data set [2] (setting [7]) and 0.818 mg/mL (≈ 3130 µM) in data set [2] (setting [8]).

`N#Cc1ccnc(N2C(=O)CC[C@H]2C(=O)N(c2cncc(F)c2)[C@H](C(=O)NC2CC(F)(F)C2)c2ccccc2Cl)c1` [AG-120]: the “patients with decreased levels of α-hydroxyglutaric acid (2HG)” value in data set [6] is given as 98%.

As for `[2H]C1([2H])CCC(c2nc(N[C@H](C)C(F)(F)F)nc(N[C@H](C)C(F)(F)F)n2)=C(F)C1O` (stereo partly drawn) [Compound 82, (*)3-(4,6-Bis(((R)-1,1,1-trifluoropropan-2-yl)amino)-1,3,5-triazin-2-yl)-2-fluorocyclohex-2-en-6,6-D2-1-ol], the “Mouse liver microsome stability” value in data set [4] is recorded as 93.1%. In data set [5], the “Rat liver microsome stability” value is 92.9%. For the same molecule, the “Solubility pH 2.1” value in data set [2] (pH 2.1 sodium phosphate buffer) is recorded as 0.146 mg/mL. Besides, the “Solubility pH 7.4” value in data set [2] (pH 7.4 sodium phosphate buffer) was determined as 0.037 mg/mL.

For `C[C@@H](Nc1nc(Nc2ccc3cccnc3c2)nc(C2=C(F)C(O)CCC2)n1)C(F)(F)F` (stereo partly shown) [Compound 68], the IC50 in data set [1] came out at 0.435 µM. Besides, the solubility at 1 h in data set [2] (setting [7]) is 0.141 mg/mL (≈ 314 µM); in data set [2] (setting [8]), < 0.005 mg/mL.

With `C[C@@H](Nc1nc(C2=C(F)C(O)C(F)(F)CC2)nc(N2CC(F)(F)C2)n1)C(F)(F)F` (stereo partly shown) [Compound 243], the IC50 was > 10 µM in data set [3] and 1.17 µM in data set [1]. The figures for the solubility at 1 h in data set [2] (setting [7]) and in data set [2] (setting [8]) were 0.055 mg/mL (≈ 127 µM) and < 0.005 mg/mL, respectively.
